Measurements taken from a melting point compilation (Tetko et al.).

| SMILES | melting point [°C] |
| --- | --- |
| O=Cc1cccc(Br)n1 | 81 |
| CCC(C#N)CC#N (stereo unspecified) | -41 |
| CCOC(=O)Cn1c(=O)sc2cccc(Cl)c21 | 79.2 |
| OCc1cccc(OCCN2CCOCC2)c1 | 55 to 60 |
| CCC1(C(=O)NC(C)c2ccc(Cl)cc2)C(C)C1(Cl)Cl (stereo unspecified) | 160 |
| Fc1c(F)c(F)c(S)c(F)c1F | -24 |
| COc1c(OC)c(OC(C)=O)c2cc(Br)ccc2c1OC(C)=O | 102 |
| Cc1ccc2sc(CO)cc2c1 | 93 to 94 |
| CC(C)(C)n1nc(-c2ccc(Cl)cc2)c(C#N)c1N | 154 to 155 |
| S=C=Nc1ccc(Cl)cc1Cl | 38 |
| COc1cccc2c(=O)c3c(n(C)c12)OC(C(C)C)C3 (stereo unspecified) | 119 |
| CC(C)C(C)C=CC(C)C1CCC2C3=CC=C4CC(O)CCC4(C)C3CCC21C (stereo unspecified) | 170 |
| O=C(CCl)N1CCOCC1 | 37 |
| CC=C(C)Cl | -19 |
| NC(=S)Nc1cccnc1 | 159 to 160 |
| O=C(O)C(F)(F)C(F)(F)C(F)(F)C(F)(F)C(F)(F)C(F)(F)C(F)(F)C(F)(F)C(F)(F)C(F)(F)F | 97.9 to 100 |
| CCCCCCO | -44.6 |
| CCOC(=O)/C(=N\Nc1ccc([N+](=O)[O-])cc1)C(=O)C(F)(F)F | 184 |
| CCOC(=O)c1[nH]c(C)c(C(=O)OCC)c1C | 137 |
| CN(C)C1=NC(=O)C(c2ccccc2)O1 (stereo unspecified) | 133 |
| COC1=C(Br)C(=O)C2(C)CCC1C2(C)C (stereo unspecified) | 104 |

| SMILES | melting point [°C] |
| --- | --- |
| CC(C)(C)NC=O | 16 |
| CC12CCC(=O)C=C1C=CC1C2CCC2(C)C1CCC21CCC(=O)O1 (stereo unspecified) | 150 |
| CCOC(C/N=C/c1ccc(/C=N/CC(OCC)OCC)c([N+](=O)[O-])c1)OCC | 38 |
| O=C(O)CCSSCCC(=O)O | 158 |
| Fc1c(Cl)cccc1Cl | 38 |
| CCCCCCOC(=O)CCCC | -63.1 |
| CCCCCCCC/C=C\CCCCCCCCCCCC(=O)O | 33.5 |
| CCCCCC(O)CCCC (stereo unspecified) | 8 |
| CCCCCCCC(=O)OC | -40 |
| O=C(O)C(O)c1ccc(C(F)(F)F)cc1 (stereo unspecified) | 130 to 134 |
| CCCCOC(=O)C1(O)c2ccccc2-c2ccccc21 | 71 |
| COc1cccc(OC)c1N | 77 |
| CCCCCCCCCCCCCCCCCCC(C)c1ccccc1 (stereo unspecified) | 29 |
| Cc1ccccc1N1C(=O)c2cc(S(N)(=O)=O)c(Cl)cc2NC1C (stereo unspecified) | 252 |
| NC(=O)c1sccc1Cl | 105 to 107 |
| COc1ccc(S(=O)(=O)c2coc(S(N)(=O)=O)c2)cc1 | 118 |
| O=C1NCCCN1 | 265 |
| Cc1ccc(NC(=O)C(F)(F)C(F)(F)C(F)(F)C(F)(F)C(F)(F)C(F)(F)C(F)(F)C(F)(F)F)cc1C | 111 |
| O=S1(=O)OC(c2cc(Br)c(O)c(Br)c2)(c2cc(Br)c(O)c(Br)c2)c2c(Br)c(Br)c(Br)c(Br)c21 | 203 to 205 |
| CC(C)(C)OC(=O)N1CCC(C(N)=O)CC1 | 163 to 164 |
| CSc1nsc(S)n1 | 143 to 147 |

| SMILES | melting point [°C] |
| --- | --- |
| C#CC1(O)CCC2C3CCC4=Cc5oncc5CC4(C)C3CCC21C (stereo unspecified) | 235 |
| CNC(=O)Sc1ccc(OS(C)(=O)=O)cc1 | 138 |
| Cc1ccc(S(=O)(=O)OCC2CCC(=O)N2)cc1 (stereo unspecified) | 122 to 129 |
| Cc1cc(C)n2nc(N)c(/N=N/c3cccnc3)c2n1 | 245 |
| OCC1CCC(n2cnc3c(O)ncnc32)O1 (stereo unspecified) | 175 |
| O=Cc1cc(Cl)cc(Cl)c1Cl | 72 to 76 |
| CCCCOCOCCCC | -58.1 |
| O=C(Nc1ccc(Cl)cc1)c1cc(Cl)cc(Cl)c1O | 142 |
| N#CCc1cccc(I)c1 | 34 |
| Fc1c(F)c(F)c(Sc2c(F)c(F)c(F)c(F)c2F)c(F)c1F | 87 |
| Cc1c(C)c(C)c(CO)c(C)c1C | 159 to 163 |
| O=S(=O)(Cl)c1ccc(F)cc1C(F)(F)F | 50 |
| CCCC1CC(C(=O)NC(C(C)O)C2OC(SC)C(O)C(O)C2O)N(C)C1 (stereo unspecified) | 295 |
| CNCC(O)c1cccc(NS(C)(=O)=O)c1 (stereo unspecified) | 159 |
| Clc1cccc(C(Cl)(Cl)Cl)c1 | 0.6 |
| Cc1n[nH]c2c(=O)n(-c3ccc(Cl)cc3)c(C)nc12 | 313 to 315 |
| CON=C(C)c1cccc(Oc2nc(OC)cc(OC)n2)c1C(=O)OC | 107 |
| O=C1OC2(c3ccccc31)c1cc([N+](=O)[O-])c(O)c(Br)c1Oc1c2cc([N+](=O)[O-])c(O)c1Br | 275 |
| CC1C(=O)C23C4CC5C(C)(C)CCC(=O)C5(C)C2C(=O)CC1C3OC(C)(C)O4 (stereo unspecified) | 197 |
| Cn1c(=O)c2c(ncn2CC(O)CO)n(C)c1=O (stereo unspecified) | 162 |
| Cc1cccnc1C | -17 |

| SMILES | melting point [°C] |
| --- | --- |
| CC(=O)Cc1ncn(-c2cc(C)on2)n1 | 138 to 140 |
| COC(=O)c1cc2c(OC)cccc2[nH]1 | 140 to 142 |
| CN(C)CC(O)Cn1c2ccc(Br)cc2c2cc(Br)ccc21 (stereo unspecified) | 153 to 154 |
| C1CN2CCN3CCN1C23 | -14.7 |
| COc1ccc(Br)cc1F | 16 |
| COc1ccc(C2CCCCC2)cc1N | 66 to 68 |
| CC1(C)CC(C(N)=O)C(C)(C)N1 (stereo unspecified) | 129 to 131 |
| Cc1cccc(S)c1 | -20 |
| CC(=Nn1c(S)nnc1C(F)(F)F)c1ccc(C)cc1 | 201 |
| NNC(=O)COc1ccc(F)cc1 | 125 |
| CCCCc1c(C)nc(N)nc1O | 273 to 275 |
| c1csc(SSc2cccs2)c1 | 55 |
| O=[N+]([O-])c1cc(Cl)cnc1Cl | 38 to 42 |
| Nc1cc(N)cc(C(=O)O)c1 | 235 |
| NC(=NO)c1ccc(C(F)(F)F)cc1 | 125 to 128 |
| Cc1nc(N)ccc1C#N | 155 to 156 |
| Cc1ccc(C)n1-c1cc([N+](=O)[O-])ccc1F | 56 to 58 |
| C[Si](C)(CCCC(=O)O)O[Si](C)(C)CCCC(=O)O | 47 |
| CCCCCSc1nnc[nH]1 | 47 to 48 |
| CCCCCCCCCCCCCCCCCCc1ccccc1 | 29 |

Now from value to compound:

| melting point [°C] | SMILES |
| --- | --- |
| 166 | N#CC1=C(N)Oc2c(c(C(F)(F)F)nn2-c2ccccc2)C1c1ccccc1Cl (stereo unspecified) |
| 205 to 208 | O=C(NC(=S)c1ccc[nH]1)Nc1ccccc1 |
| 94 | O=C(CCCl)NCc1ccccc1 |
| 121 to 123 | Cc1ccc(-c2nnc(CCl)o2)cc1 |
| 150 to 151 | CSc1nc(=O)n2ccccc2n1 |
| 189 | N#Cc1ccc(C[C@H](NC(=O)OCC2c3ccccc3-c3ccccc32)C(=O)O)cc1 |
| 62.5 | CCc1cc2ccccc2c2ccccc12 |
| 151 | O=c1nc2ccccc2nc(C(F)(F)F)c1NNc1ccc2ccccc2c1 |
| 175 | CC1=C(C(=O)OCc2ccccc2)C(c2ccccc2)NC(=S)N1 (stereo unspecified) |
| 102 | N#CCc1nc2ccccc2s1 |
| 170 | Cc1ccc(-c2nc(C(=O)O)cs2)cc1 |
| 142 | O=C(c1ccccc1)N(CC(=Nc1ccccc1)Nc1ccccc1)c1ccccc1 |
| 107 | Brc1cnc(N2CCCC2)nc1OCc1ccccc1 |
| -13.5 | Cc1ccccc1C#N |
| 97 to 99 | S=C=Nc1ccc(-n2cccn2)cc1 |
| 222 | CC1(C)CC(=O)C2=C(C1)Nc1c(ccc3ccccc13)C2c1ccc(Cl)cc1Cl (stereo unspecified) |
| 45 to 46 | CNCc1ccc(-c2cncnc2)cc1 |
| 164 | COc1ccc(CNC2=CC(=O)c3ccccc3C2=O)cc1 |
| 65 to 67 | CSc1nc2ccccc2c(=O)n1C |
| 65 | CCO[Si](c1ccccc1)(c1ccccc1)c1ccccc1 |
| 284 | CC(=O)Nc1ccc(N=Nc2cc(C(C)C)c(N=Nc3ccc(NC(C)=O)cc3)cc2C)cc1 |
| 165 to 170 | c1ccc(CN2CCc3c([nH]c4ccccc34)C2)cc1 |

| melting point [°C] | SMILES |
| --- | --- |
| 241 | O=C(O)c1ccc(NC(=O)C(Cc2ccc(O)cc2)NC(=O)c2ccccc2)cc1 (stereo unspecified) |
| 48 to 50 | CCOC(=O)Cc1ccc(N)cc1 |
| 96 to 97 | Nc1cccnc1Oc1ccc(F)cc1F |
| 271 | O=C1NN=C(C(F)(F)F)C1=NNc1cc(-c2ccccc2)n[nH]1 |
| 114 | COc1cc2c(c(OC)c1OC)C(=O)[C@]1(OC)C=C[C@H]2N(c2ccccc2)O1 |
| 205 | O=[N+]([O-])c1ccc(NN=Cc2cccc3c(Br)ccc([N+](=O)[O-])c23)cc1 |
| 241 | Cc1nc(/C(C#N)=N/Nc2ccccc2Cl)sc1/N=N/c1ccc(Br)cc1 |
| 88 to 90 | CCOC(=O)c1ccc(-n2c(C)ccc2C)cc1 |
| 193 | O=[N+]([O-])c1cc([N+](=O)[O-])c(/C=C/c2ccccc2)cc1/C=C/c1ccccc1 |
| 117 to 119 | O=C(c1ccccc1)c1cccc(O)c1 |
| 105 to 107 | O=C(c1ccccc1)c1cc2c(cc1Br)OCCCO2 |
| 137 | COc1ccc(C(=CCC(=O)O)C(C)(C)C(=O)O)cc1 |
| 181 | N#Cc1c(C(F)(F)F)cc(-c2ccccc2)nc1S |
| 65 | CC(=O)Oc1ccccc1-c1ccccc1 |
| 105 | CC(=O)CC(=O)Nc1ccccc1Cl |
| 42 | CSc1ccc(CO)cc1 |
| 212 | O=[N+]([O-])c1ccc(N=Nc2ccc([N+](=O)[O-])cc2)cc1 |
| 288 | O=C(O)c1ccccc1SSc1ccccc1C(=O)O |
| 146 | CN1c2ccccc2Sc2ccc(CC(=O)O)cc21 |
| 186 to 188 | c1ccc(-c2nnc(-c3ccccn3)c(-c3ccccn3)n2)nc1 |
| 111 to 112 | O=S(=O)(c1ccccc1)N1CCNCC1 |
